Test results reported in US20260023068A1, “USE OF A FBXO42 SPECIFIC INHIBITOR IN TREATING NOTCH SIGNALING-DEPENDENT DISEASE” (WESTLAKE UNIVERSITY, priority 2022, published 2026).

What was measured:
[1] = system: FBXO42-mediated K63-linked polyubiquitination of RBPJ; test: In vivo ubiquitination assay of RBPJ in transfected HEK293T cells; assay type: cell-based, human; settings: DMSO or MLN4924, western blotting (FIG. 4K)
Method: (A) cSFB-RBPJ, hemagglutinin-ubiquitin (HA-Ub) and Myc-FBXO42 WT were cotransfected into HEK293T cells as indicated and treated with or without MG132 for 4 h. The cell lysates were incubated with S beads and analyzed by western blotting for RBPJ polyubiquitination detection. (B) Immunoprecipitated endogenous RBPJ products from WT and FBXO42 KO cells were immunoblotted for Ub. (C) cSFB-RBPJ, hemagglutinin-ubiquitin (HA-Ub) and Myc-FBXO42 WT or AF mutant were cotransfected into HEK293T cells. The cell lysate was collected and analyzed for RBPJ polyubiquitination. (D) HEK293T cells were transfected with cSFB-RBPJ, Myc-FBXO42 and HA-Ub with or without FLAG-NICD1 overexpression. The cell lysates were incubated with S beads and analyzed by western blotting for RBPJ polyubiquitination detection. […] The degree of RBPJ polyubiquitination was evaluated as described above. […] The cell lysates were incubated with S beads and analyzed by western blotting for RBPJ polyubiquitination detection. […] (J) Quantitation of the results shown in (I). […] The cell lysates were analyzed for RBPJ ubiquitination. […] (P) Efficiency of RBPJ short interfering RNAs (siRNAs) detected via western blotting. […] Quantitative data are presented as mean±SEM. P values were calculated using two-tailed Student's t-tests or ANOVA for multiple comparison. *P<0.05, **P<0.01, ***P<0.001, ##P<0.01 vs. FBXO42. […]

[2] = system: JURKAT and HSB2 cells; test: Cell viability, cell counting kit-8 assay; assay type: cell-based, human; settings: JURKAT and HSB2, concentration gradient, 36 h, CCK-8 (FIG. 12L)
Method: FBXO42-KO cells were rescued with WT FBXO42 or F-box deletion mutant and were used in the following studies. (A-C) The mRNA levels of Notch target genes in the treated HEK293T (A), JURKAT (B) and HSB2 (C) cells were determined by qPCR. (D-G) The invasion abilities of the treated JURKAT (D) and HSB2 (F) cells were evaluated using a 3D culture system with Matrigel. Scale bars, 50 μm. The respective average diameter of the spheres in D and F was summarized, respectively (E and G). (H-K) Anchorage-independent growth of the rescued JURKAT (H) and HSB2 (J) cells was measured using a soft agar colony formation assay. The number of colonies in H and J was counted and summarized, respectively (I and K). (L) JURKAT and HSB2 cells were treated with MLN4924 in a concentration-gradient manner for 36 h and then evaluated for the cell viability using cell counting kit-8 assay. (M and N) The expression of Notch target genes in MLN4924-treated JURKAT (M) and HSB2 (N) cells were determined by qPCR. (O-R) Anchorage-independent growth of MLN4924-treated JURKAT (0) and HSB2 (Q) cells was measured using soft agar colony formation assays. The number of colonies was counted and summarized (P and R). (A-R, n=3) The data are shown as the mean±SEM from the independent experiments. P values were calculated using one-way ANOVA for multiple comparisons or two-tailed Student's t-tests. *P<0.05, ** P<0.01, *** P<0.001.

## NS(=O)(=O)OC[C@@H]1C[C@@H](n2ccc3c(N[C@H]4CCc5ccccc54)ncnc32)C[C@@H]1O [MLN4924]
[1]
  FBXO42-mediated K63-linked polyubiquitination of RBPJ: effectively abrogated
[2]
  cell viability of leukemia cells: diminished
